Measurements taken from patent US20040266811A1, “Methods for inducing regeneration, remyelination, and hypermyelination of nervous tissue” (priority 2002, published 2004).
pKd: −log10 of the molar value. Entries after “also recorded” stand apart in the source; their conditions may differ.

Columns and labels:
calcineurin = details: cited from earlier work
[1] = system: TrkA-overexpressing PC12 cells; assay: Schwann cell conditioned media on TrkA-overexpressing PC12 cells; assay type: cell-based; details: Schwann cells 1 μM GM-284 48 h; CM on PC12 72 h
Experimental: Wild-type and TrkA-overexpressing PC12 cells (Hempstead et al., Overexpression of the trk tyrosine kinase rapidly accelerates nerve growth factor-induced differentiation. Neuron, 9:883-96, 1992) were maintained in DMEM supplemented with 10% calf serum and 5% horse serum, the latter of which was also supplemented with 200 μg/ml G418 to maintain TrkA selection. Cultures were treated with 100 ng/ml NGF or the immunophilin ligands, or treated with Schwann-cell-conditioned medium supplemented with 5% horse serum, as indicated below. To generate GFP-expressing PC12 cells, a bicistronic pCX-bsr retroviral vector (Escalante et al., Phosphorylation of c-Crk II on the negative regulatory Tyr222 mediates nerve growth factor-induced cell spreading and morphogenesis. J. Biol. Chem., 275:24787-797, 2000), which drives expression of green fluorescent protein (GFP), was used to infect dividing PC12 cells.
To more directly examine the involvement of Schwann cells in mediating the neuritogenic capacities of GM-284, PC12 cells were infected with GFP-expressing retrovirus, and co-cultured on monolayers of Schwann cells, in the presence of either NGF, GM-284, or vehicle, for 48 h (FIG. 4B, panels a-c). […]

Schwann cells = assay: cDNA-array analysis of Schwann cell gene expression; assay type: cell-based, Sprague-Dawley rats
Experimental: To generate primary Schwann cells, neonatal Sprague-Dawley rats were sacrificed by decapitation, and 2-cm segments (approximately) of sciatic nerve were excised and placed in ice-cold PBS. Following removal of the epineurium, the nerves were pooled and placed in Hank's balanced salt solution containing 0.1% trypsin for 30 min at 37° C. Subsequently, partially-dissociated cells were plated onto polylysine/laminin-coated tissue culture plates, and enriched Schwann cells were further purified by the activation of anti-Thy 1.1 monoclonal antibodies and complement, in order to lyse proliferating fibroblasts (Wu and Weinstein, “Isolation and Purification of Primary Schwann Cells”, in Current Protocols in Neuroscience, Crawley et al., eds. (New York, N.Y.: John Wiley & Sons, 1999). The Schwann cells were maintained in DMEM containing 10% FCS supplemented with 50 ng/ml GGF and 2 μg/ml forskolin. However, these latter compounds were removed 48 h prior to the addition of immunophilin ligands. For the Schwann cell/PC12 co-cultures, monolayers of Schwann cells were prepared and overlaid with pCX-expressing PC12 cells, and cultures were incubated in the presence of either 100 ng/ml NGF or 1 μg/ml GM-284 for 48 h.
To test the former hypothesis, the inventors starved Schwann cells of growth factor for 48 h, then treated the cells for either 4 h or 48 h with a 1-μM dose of GM-284. RNA was harvested from the treated cells and from control (vehicle-treated) Schwann cells, and then prepared for cDNA-array analysis. Experimental details of the preparation of the RNA, and the methods for conducting the hybridization, washing, and scanning, are posted at the following http website: //sequence.aecom.yu.edu/bioinf/funcgenomic.html.
Total RNA was isolated, and prepared for cDNA microarray analysis as described (Peng et al., Microarray analysis of global changes in gene expression during cardiac myocyte differentiation. Physiol. Genomics, 9(3):145-55, 2002).

recombinant FKBP52 = molecular target: T1, recombinant FKBP52 (Homo sapiens, UniProt Q02790); assay: Tryptophan fluorescence (QTFS) binding to recombinant FKBP52
T1 construct: other: QTFS, 18° C., unit not given; dissociation constant (kd) for FKBP52 by QTFS; other: QTFS; fused on or other part: probably GST at the N-terminus (pGEX-6p), as in b91 and the GST-alone control of b31
T1 sequence (Q02790 1-459): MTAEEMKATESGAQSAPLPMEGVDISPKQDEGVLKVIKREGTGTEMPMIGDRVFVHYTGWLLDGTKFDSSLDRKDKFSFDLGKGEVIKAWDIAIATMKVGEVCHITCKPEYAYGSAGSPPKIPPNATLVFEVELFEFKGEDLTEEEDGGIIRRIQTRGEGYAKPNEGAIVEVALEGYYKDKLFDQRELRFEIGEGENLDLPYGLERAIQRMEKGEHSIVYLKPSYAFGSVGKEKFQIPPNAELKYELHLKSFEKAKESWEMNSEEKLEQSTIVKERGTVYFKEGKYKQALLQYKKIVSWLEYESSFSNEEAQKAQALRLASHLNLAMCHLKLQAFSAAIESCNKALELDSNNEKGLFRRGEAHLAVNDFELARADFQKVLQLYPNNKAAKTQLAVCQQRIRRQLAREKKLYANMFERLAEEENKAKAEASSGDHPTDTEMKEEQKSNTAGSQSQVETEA

## CCC(C)(C)C(=O)C(=O)N1CCC[C@H]1c1nnc([C@@H]2CCCN2C(=O)C(=O)C(C)(C)CC)o1 [GM-284]
calcineurin
  binding to / inhibition of calcineurin: neither bind to, nor inhibit, calcineurin
[1]
  neurite outgrowth induced by conditioned media from treated Schwann cells: promoted significant neurite outgrowth; also recorded: Neurite promotion was observed only in the GM-284-treated Schwann cells' conditioned media
Schwann cells; 1 μM GM-284, 4 hours
  ESTs upregulated: 15
  Known genes upregulated: 11
  Selected upregulated genes: Cytokeratin 19 and Fibrillin 2 (fbn2) and IFNγ inducible and CD14 and Estradiol dehydrogenase
  Total upregulated genes: 26
Schwann cells; 1 μM GM-284, 48 hours
  ESTs upregulated: 77
  Known genes upregulated: 32
  Total upregulated genes: 109
Recombinant FKBP52; 18° C., unit not given
  disassociation constant (kd), binding affinity for recombinant FKBP52: 139±16.2
Recombinant FKBP52; read-out: dissociation constant (kd) for FKBP52 by QTFS
  pKd: 6.86
